Ends that are not written are not given here. * marks the point of attachment. Biotin = O=C1N[C@H]2[C@H](CS[C@H]2CCCCC(=O)*)N1
Experiments:
4T1 cells = experiment: Flow cytometry based cell death assay (PI), 4T1; parameters: species or system murine; settings: 4T1, PI flow cytometry, 0–8 µM, 24 h
Protocol: (§1) Peptides were diluted before the incubation with the target cells with free DMEM culture medium to 0–16 µM according to peptide molecular weight. For adding the peptides, 0.5 ml was removed from each well, and 0.5 ml of diluted peptides was added to a final volume of 1 ml, 5% FCS, duplicates. Peptides were incubated with target cells for 24 h, and then the medium was collected, adherent cells were removed with trypsin–EDTA (0.5 ml, 3 min, BI: 03-052-1B), 1 ml of complete medium was added to each well, and the medium was collected (final volume 2.5 ml, on ice). For the cell death assay, samples were then centrifuged (1,300 rpm, 4°C, 5 min), the medium was removed, fresh 1 ml 10% FCS was added, and then 1 µl of 1 mg/ml PI was added to each sample and incubated (15 min, on ice) with the target cells. Before analyzing the samples, samples were centrifuged (1,300 rpm, 4°C, 5 min), the medium was removed, and fresh 0.2 ml FCAS buffer (PBS 1×, 20% FCS, 0.5% NaN3) was added. Samples were then read and analyzed using BD FACSCanto™ II and FlowJo®. APIM peptide and camptothecin (CPT) were used as positive controls ([38], [54]–[56]). Specific cell death was calculated as following: Y = 100*((sample cell death − basal cell death)/(100 − basal cell death)). Basal cell death = % of PI positive cells following incubation in complete culture media.

B16 cells = experiment: Flow cytometry based cell death assay (PI), B16; parameters: species or system murine; settings: 0–8 µM, 24 h
Protocol: as §1

MDA-MB-231 cells = experiment: Flow cytometry based cell death assay (PI), MDA-MB-231; parameters: species or system human; settings: MDA-MB-231, PI flow cytometry, 0–8 µM, 24 h
Protocol: as §1

[1] = tested on: A549 lung carcinoma cells; experiment: PrestoBlue cell viability, A549; assay type: cell-based, human; settings: 24 h, peptides 0–8 µM, selenite 25 µM
Protocol: (§2) Target cells (2.5 × 10^4 cells/well of a 48-well plate, Corning) were seeded and incubated in 37°C, 5% CO2 for 24 h in 0.5 ml of fresh complete DMEM (10% FBS) culture medium. According to molecular weight peptides were diluted from 8 to 2 µM with 5% FBS containing DMEM culture medium just before the incubation with the target cells. Medium was removed from each well, and 250 µl of diluted peptides was added and incubated for another 24 h at 37°C, 5% CO2. PrestoBlue (A13261, Invitrogen™) solution was prepared by diluting the dye 10-fold with complete DMEM. Medium was discarded from each well, and 250 µl of PrestoBlue solution was added to each well, shake gently and incubated at 37°C for another 1 h. Emission at 560 nm was measured in Premium Quad4 Monochromators plate reader (Tecan). Normalization was done relative to the appropriate control (DMEM or DMSO) to calculate the percentage of viable cells in each group. Selenite (25 µM) was used as a positive control ([52], [53]).

[2] = tested on: 4T1 mammary carcinoma cells; experiment: PrestoBlue cell viability, 4T1; assay type: cell-based, murine; settings: 4T1, PrestoBlue, 24 h; peptides 0–8 µM; selenite 25 µM
Protocol: as §2

[3] = tested on: pep8–PCNA interaction (recombinant PCNA); experiment: ELISA-based inhibition of biotin-pep8 binding to PCNA; parameters: species or system human; settings: inhibitor 25 µg/ml 1 h, then biotin-pep8 5 µg/ml 1 h, room temperature, O.D. 650 nm
Protocol: To determine the ability of APIM-based peptide to suppress NKp44-pep8 interaction with PCNA, ELISA plates were coated with recombinant PCNA followed by PBS–skim milk added as described earlier. Plates were then incubated with 25 µg/ml of R11-NLS-pep8 (positive control), R11-NLS-pep8short (negative control), and APIM for 1 h at room temperature followed by addition of biotin-pep8 (5 µg/ml) without washing for 1 h at room temperature. Biotin-pep8 binding to PCNA was detected using streptavidin conjugated HRP (1 h at 1:500 dilution 100 μl/well). Following washing, TMB (100 μl/well DAKO, S1599) was added. O.D. was read at 650 nm (Thermo Electron Corporation Multiskan Spectrum).

[4] = tested on: HepG2 hepatocellular carcinoma cells; experiment: PrestoBlue cell viability, HepG2; assay type: cell-based, human; settings: 24 h
Protocol: as §2

[5] = tested on: MDA-MB-231 breast adenocarcinoma cells; experiment: PrestoBlue cell viability, MDA-MB-231; assay type: cell-based, human; settings: MDA-MB-231, PrestoBlue, 24 h
Protocol: as §2

[6] = tested on: PANC-1 pancreas ductal adenocarcinoma cells; experiment: PrestoBlue cell viability, PANC-1; assay type: cell-based, human; settings: PANC-1, PrestoBlue, 24 h
Protocol: as §2

B16 melanoma cells = experiment: PrestoBlue cell viability, B16; assay type: cell-based, murine; settings: 24 h
Protocol: as §2

[7] = tested on: recombinant human PCNA (hPCNA); experiment: ELISA binding of biotinylated NKp44-derived peptides to plate-bound recombinant PCNA; settings: biotinylated peptide, 0–7.24 µM (Figure 1A), streptavidin-HRP, TMB, O.D. 650 nm
Protocol: The pET-28 or pMAL-c2x vectors were used to produce soluble human PCNA (hPCNA) in Rosetta™ 2 (DE3) cells. Plasmids containing the mRNA sequence of PCNA or TL1A, APO-E3, HNF4 were transformed into Rosetta™ 2 cells via heat shock and grown on LB agar plates with kanamycin and chloramphenicol. A fresh colony of transformed bacteria was grown overnight in a 5 ml of LB with kanamycin and chloramphenicol an incubator shaker set to 37°C and at 250 rpm. The next day, bacteria cells were diluted 1:100 into a 500 ml of LB with kanamycin and chloramphenicol (to discard dead cells) and grown to an optical density (O.D.) of 0.6–0.8 (λ = 650 nm). Isopropyl β-D-1-thiogalactopyranoside (0.5 mM) was added for the induction of the PCNA production, and cells were further incubated for 4 h at 26°C (hPCNA). Cells were then centrifuged and the pellet was resuspended with solution A (20 mM Tris–HCl pH 8.0, 0.5 M NaCl, 20 mM imidazole), sonicated six times (20 s with 40 s intervals) and sieved through […] (Sartorius Stedim Biotech) filter before loaded on a His-tag or Amylose resin beads. Purification of His-tagged proteins was done using a Gravity-flow Column with “HisPur™ Ni-NTA Resin” Bead kit (Thermo-Scientific) (binding capacity ≤ 60 mg of a 28 kDa 6xHis-tagged protein from a bacterial source per milliliter of settled resin) according to Kits Protocol. Purification of MBP-tagged proteins was done using the Amylose resin beads (Catalog # E8035S).
To determine the interaction between NKp44-derived peptides and PCNA, ELISA plates were coated overnight at 4°C with 2 µg/ml of the recombinant PCNA or TLA1 ([49]), APO-E3 ([50]), HNF4 ([4]), rhFc, rhNKp44-hFc ([12]), rhNKp46-hFc ([51]), and PBS 1× (negative controls). Blocking buffer (PBS + 2.5% skim milk) was applied for 2 h at room temperature, after that the plates were incubated with 0–8 µM of biotinylated NKp44-derived peptides or PBS 1× (background control) for 2 h at room temperature. NKp44-derived peptides binding to PCNA was detected using horseradish peroxidase (HRP)-conjugated to streptavidin (1 h at 1:500 dilution). Following washing, TMB (DAKO, S1599) was added. O.D. was read at 650 nm (Thermo Electron Corporation Multiskan Spectrum). Between each step, wells were washed three times with PBS containing 0.05% Tween 20 (PBST).

[8] = target: T1, MBP-fused recombinant human PCNA (human, UniProt P12004 1-261); experiment: SPR; ProteOn XPR36, GLC chip; peptides immobilised by EDC/S-NHS amine coupling; MBP-PCNA 0-250 nM as analyte at 25 µl/min; equilibrium analysis model; settings: both partners purified
T1 construct: proliferating cell nuclear antigen, human; vector pMAL-c2x; Analyte of the SPR experiments; also called MBP-PCNA; hPCNA; source: E. coli Rosetta 2 (DE3), purified (amylose resin)
T1 sequence (P12004 whole entry, the tested form may be a part): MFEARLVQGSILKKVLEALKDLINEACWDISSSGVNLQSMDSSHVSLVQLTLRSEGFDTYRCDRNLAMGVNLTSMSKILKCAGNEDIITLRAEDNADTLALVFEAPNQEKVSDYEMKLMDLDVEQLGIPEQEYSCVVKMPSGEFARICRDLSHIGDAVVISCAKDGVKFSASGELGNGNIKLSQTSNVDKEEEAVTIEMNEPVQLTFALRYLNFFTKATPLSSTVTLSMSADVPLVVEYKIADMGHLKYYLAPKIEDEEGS

[9] = target: T2, recombinant human PCNA (proliferating cell nuclear antigen) (human, UniProt P12004 1-261); experiment: ELISA; plates coated overnight at 4°C with 2 µg/ml recombinant protein; blocked with PBS + 2.5% skim milk; 0-8 µM biotinylated NKp44-derived peptides, 2 h at room temperature; streptavidin-HRP; settings: both partners purified
T2 construct: proliferating cell nuclear antigen, human; PCNA coated on ELISA plates; also called hPCNA; recombinant PCNA; source: E. coli Rosetta 2 (DE3), purified (Ni-NTA or amylose resin); not shown: His tag or MBP (from the vectors pET-28 or pMAL-c2x)
T2 sequence (P12004 whole entry): as the sequence (P12004 whole entry, the tested form may be a part) above

## CC[C@@]1(O)C(=O)OCc2c1cc1n(c2=O)Cc2cc3ccccc3nc2-1 [CPT, camptothecin, reference compound]
4T1 cells
  induction of cell death, in words: lower, but stable levels of cell death
B16 cells
  induction of cell death, in words: lower, but stable levels of cell death
MDA-MB-231 cells
  induction of cell death, in words: lower, but stable levels of cell death

## O=[Se](O)O [Selenite, reference compound]
[1]
  effect on cell viability, in words: significantly reduced cell viability
[2]
  effect on cell viability, in words: significantly reduced cell viability

## MDRWLVK-W-KKKRK-I-RRRRRRRRRRR [APIM, published PCNA-targeting peptide used as positive control, reference compound]
4T1 cells
  induction of cell death, in words: strong induction of cell death
B16 cells
  induction of cell death, in words: strong induction of cell death
MDA-MB-231 cells
  induction of cell death, in words: strong induction of cell death
[3]
  inhibition of pep8 binding to PCNA: 7%

## RRRRRRRRRRR-I-KKKRK-W-VTSSKPRTVA [R11-NLS-pep8short, R11-NLS fused to pep8short, negative control]
[4]
  effect on cell viability, in words: none to dull effect
[5]
  effect on cell viability, in words: none to dull effect
4T1 cells
  induction of cell death, in words: did not induce any cell death
[1]
  effect on cell viability, in words: did not show any effect on tumor cell viability
[2]
  effect on cell viability, in words: did not affect 4T1 cell viability
B16 cells
  induction of cell death, in words: did not induce any cell death
MDA-MB-231 cells
  induction of cell death, in words: did not induce any cell death
[6]
  effect on cell viability, in words: none to dull effect
B16 melanoma cells
  effect on cell viability, in words: none to dull effect
[3]
  inhibition of pep8 binding to PCNA: 10%

## VTSSKPRTVA [pep8short, short form of pep8]
[7]
  binding to recombinant hPCNA: does not bind PCNA
[7]; listed as 10-mer shared core sequence of pep8 and pep10
  binding to recombinant hPCNA: did not bind PCNA

## YPPTGSLYEKKGWCKEASAL [pep5, NKp44-derived peptide used as negative control]
[7]
  binding to recombinant hPCNA: negative binding

B1: NKp44-derived pep8 (immobilised for SPR) (peptide)
peptide: EASALVCIRLVTSSKPRTVA
notes: NKp44 (NCR2), amino acids 57-76, with the natural SNP variant (rs9471577) valine at 75; also called NKp44-pep8; source: synthetic peptide
[8]
  Kd: 490 nM

B2: R11-NLS-pep8 (peptide)
peptide: RRRRRRRRRRRIKKKRKWEASALVCIRLVTSSKPRTVA
modifications: not fully specified (residue 38, N-terminus); printed as RRRRRRRRRRR-I-KKKRK-W-EASALVCIRLVTSSKPRTVA
notes: cell-penetrating moiety: R11, I, NLS stretch KKKRK, W; NKp44 (NCR2), amino acids 57-76 (pep8), with valine at 75 (SNP rs9471577); also called CPP-pep8; source: synthetic peptide (GL Biochem, purity > 95%)
[8]
  Kd: 87 nM

B3: biotinylated NKp44-derived peptide #8 (peptide)
peptide: Biotin-EASALVCIRLVTSSKPRTVA
notes: NKp44 (NCR2), amino acids 57-76, with the natural SNP variant (rs9471577) valine at 75; also called pep8; NKp44-pep8; source: synthetic peptide (PEP screen, Sigma-Aldrich; selected peptides from GL Biochem)
[9]
  binding result: binds

B4: biotinylated NKp44-derived peptide #10 (peptide)
peptide: Biotin-VTSSKPRTVAWTSRFTIWAA
notes: NKp44 (NCR2), amino acids 67-86, with valine at 75 (SNP rs9471577); also called pep10; NKp44-pep10; source: synthetic peptide (PEP screen, Sigma-Aldrich; selected peptides from GL Biochem)
[9]
  binding result: binds

From paper PMC5974751, “NKp44-Derived Peptide Binds Proliferating Cell Nuclear Antigen and Mediates Tumor Cell Death” (Frontiers in Immunology, 2018)
